Data from ChEMBL document CHEMBL1201862, “PubChem BioAssay data set” (2004).
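Cultured in 96-well plates, cells were exposed to test compound for 48 hours across five concentrations. GI50: concentration for 50% inhibition of growth.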 The source made the active and inactive calls. Rule as the data show it: active = GI50 up to about 1.1 µM and inactive = higher.

What was measured:
Assay in all cases: NCI-60 cell line screen, 48 h
786-0 = tested on: 786-0
A498 = tested on: A498
A549 = tested on: A549
ACHN = tested on: ACHN
BT-549 = tested on: BT-549
CAKI-1 = tested on: CAKI-1
CCRF-CEM = tested on: CCRF-CEM
COLO 205 = tested on: COLO 205
DU-145 = tested on: DU-145
EKVX = tested on: EKVX
HCC 2998 = tested on: HCC 2998
HCT-116 = tested on: HCT-116
HCT-15 = tested on: HCT-15
HL-60 = tested on: HL-60
HOP-62 = tested on: HOP-62
HOP-92 = tested on: HOP-92
HT-29 = tested on: HT-29
Hs-578T = tested on: Hs-578T
IGROV-1 = tested on: IGROV-1
KM12 = tested on: KM12
LOX IMVI = tested on: LOX IMVI
M14 = tested on: M14
MCF7 = tested on: MCF7
MDA-MB-231 = tested on: MDA-MB-231
MDA-MB-435 = tested on: MDA-MB-435
MDA-N = tested on: MDA-N
Malme-3M = tested on: Malme-3M
NCI-H226 = tested on: NCI-H226
NCI-H23 = tested on: NCI-H23
NCI-H460 = tested on: NCI-H460
NCI-H522 = tested on: NCI-H522
NCI/ADR-RES = tested on: NCI/ADR-RES
OVCAR-3 = tested on: OVCAR-3
OVCAR-4 = tested on: OVCAR-4
OVCAR-5 = tested on: OVCAR-5
OVCAR-8 = tested on: OVCAR-8
PC-3 = tested on: PC-3
RPMI-8226 = tested on: RPMI-8226
RXF 393 = tested on: RXF 393
SF-268 = tested on: SF-268
SF-295 = tested on: SF-295
SF-539 = tested on: SF-539
SK-MEL-28 = tested on: SK-MEL-28
SK-MEL-2 = tested on: SK-MEL-2
SK-MEL-5 = tested on: SK-MEL-5
SK-OV-3 = tested on: SK-OV-3
SN12C = tested on: SN12C
SNB-19 = tested on: SNB-19
SNB-75 = tested on: SNB-75
SR = tested on: SR
SW-620 = tested on: SW-620
T47D = tested on: T47D
TK-10 = tested on: TK-10
U-251 = tested on: U-251
UACC-257 = tested on: UACC-257
UACC-62 = tested on: UACC-62
UO-31 = tested on: UO-31
K562 = tested on: K562
MOLT-4 = tested on: MOLT-4

O=C(O)Cc1cc(Cl)ccc1O
GI50 (786-0): > 100 µM (inactive) | GI50 (A498): > 100 µM (inactive) | GI50 (A549): > 100 µM (inactive) | GI50 (ACHN): > 100 µM (inactive) | GI50 (BT-549): > 100 µM (inactive) | GI50 (CAKI-1): > 100 µM (inactive) | GI50 (CCRF-CEM): > 100 µM (inactive) | GI50 (COLO 205): > 100 µM (inactive) | GI50 (DU-145): > 100 µM (inactive) | GI50 (EKVX): > 100 µM (inactive) | GI50 (HCC 2998): > 100 µM (inactive) | GI50 (HCT-116): > 100 µM (inactive) | GI50 (HCT-15): > 100 µM | GI50 (HL-60): > 100 µM (inactive) | GI50 (HOP-62): > 100 µM (inactive) | GI50 (HOP-92): > 100 µM (inactive) | GI50 (HT-29): > 100 µM (inactive) | GI50 (Hs-578T): > 100 µM (inactive) | GI50 (IGROV-1): > 100 µM (inactive) | GI50 (KM12): > 100 µM (inactive) | GI50 (LOX IMVI): > 100 µM (inactive) | GI50 (M14): > 100 µM (inactive) | GI50 (MCF7): > 100 µM (inactive) | GI50 (MDA-MB-231): > 100 µM (inactive) | GI50 (MDA-MB-435): > 100 µM (inactive) | GI50 (MDA-N): > 100 µM (inactive) | GI50 (Malme-3M): > 100 µM (inactive) | GI50 (NCI-H226): > 100 µM (inactive) | GI50 (NCI-H23): > 100 µM (inactive) | GI50 (NCI-H460): > 100 µM (inactive) | GI50 (NCI-H522): > 100 µM (inactive) | GI50 (NCI/ADR-RES): > 100 µM (inactive) | GI50 (OVCAR-3): > 100 µM (inactive) | GI50 (OVCAR-4): > 100 µM (inactive) | GI50 (OVCAR-5): > 100 µM (inactive) | GI50 (OVCAR-8): > 100 µM (inactive) | GI50 (PC-3): > 100 µM (inactive) | GI50 (RPMI-8226): > 100 µM (inactive) | GI50 (RXF 393): > 100 µM (inactive) | GI50 (SF-268): > 100 µM (inactive) | GI50 (SF-295): > 100 µM (inactive) | GI50 (SF-539): > 100 µM (inactive) | GI50 (SK-MEL-28): > 100 µM (inactive) | GI50 (SK-MEL-2): > 100 µM (inactive) | GI50 (SK-MEL-5): > 100 µM (inactive) | GI50 (SK-OV-3): > 100 µM (inactive) | GI50 (SN12C): > 100 µM (inactive) | GI50 (SNB-19): > 100 µM (inactive) | GI50 (SNB-75): > 100 µM (inactive) | GI50 (SR): > 76.9 µM (inactive) | GI50 (SW-620): > 100 µM (inactive) | GI50 (T47D): > 100 µM (inactive) | GI50 (TK-10): > 100 µM (inactive) | GI50 (U-251): > 100 µM (inactive) | GI50 (UACC-257): > 100 µM (inactive) | GI50 (UACC-62): > 100 µM (inactive) | GI50 (UO-31): > 100 µM (inactive)

CC1C(C#N)(C#N)C(C#N)=C(N)C1(C)[N+](=O)[O-] (stereo not given)
GI50 (786-0): 56 µM (inactive) | GI50 (A498): 68.2 µM (inactive) | GI50 (A549): 23.5 µM (inactive) | GI50 (ACHN): 87.5 µM (inactive) | GI50 (BT-549): 42.1 µM (inactive) | GI50 (CAKI-1): 5.27 µM (inactive) | GI50 (CCRF-CEM): 32.4 µM (inactive) | GI50 (COLO 205): 44.6 µM (inactive) | GI50 (DU-145): > 100 µM (inactive) | GI50 (EKVX): 21.5 µM (inactive) | GI50 (HCC 2998): 47.6 µM (inactive) | GI50 (HCT-116): 58.3 µM (inactive) | GI50 (HCT-15): 33.7 µM | GI50 (HL-60): 29.8 µM (inactive) | GI50 (HOP-62): > 100 µM (inactive) | GI50 (HOP-92): 2.92 µM (inactive) | GI50 (HT-29): 26.2 µM (inactive) | GI50 (Hs-578T): 64.9 µM (inactive) | GI50 (IGROV-1): 37.2 µM (inactive) | GI50 (K562): 29.9 µM (inactive) | GI50 (KM12): > 100 µM (inactive) | GI50 (LOX IMVI): 37.7 µM (inactive) | GI50 (M14): > 100 µM (inactive) | GI50 (MCF7): 24.8 µM (inactive) | GI50 (MDA-MB-231): > 100 µM (inactive) | GI50 (MDA-MB-435): 45.7 µM (inactive) | GI50 (MDA-N): 64.6 µM (inactive) | GI50 (MOLT-4): 25.4 µM (inactive) | GI50 (Malme-3M): 48.2 µM (inactive) | GI50 (NCI-H226): > 100 µM (inactive) | GI50 (NCI-H23): > 100 µM (inactive) | GI50 (NCI-H460): 30.6 µM (inactive) | GI50 (NCI-H522): 36.7 µM (inactive) | GI50 (NCI/ADR-RES): > 100 µM (inactive) | GI50 (OVCAR-3): 67.9 µM (inactive) | GI50 (OVCAR-4): 47.4 µM (inactive) | GI50 (OVCAR-5): > 100 µM (inactive) | GI50 (OVCAR-8): 65.8 µM (inactive) | GI50 (PC-3): 66.4 µM (inactive) | GI50 (RPMI-8226): 28.7 µM (inactive) | GI50 (RXF 393): 43.1 µM (inactive) | GI50 (SF-268): > 100 µM (inactive) | GI50 (SF-295): > 100 µM (inactive) | GI50 (SF-539): 31.5 µM (inactive) | GI50 (SK-MEL-2): > 100 µM (inactive) | GI50 (SK-MEL-5): > 100 µM (inactive) | GI50 (SK-OV-3): > 100 µM (inactive) | GI50 (SN12C): 58.2 µM (inactive) | GI50 (SNB-19): > 100 µM (inactive) | GI50 (SNB-75): 89.5 µM (inactive) | GI50 (SR): 31.2 µM (inactive) | GI50 (SW-620): 51.1 µM (inactive) | GI50 (T47D): > 10 µM (inactive) | GI50 (TK-10): > 100 µM (inactive) | GI50 (U-251): 48 µM (inactive) | GI50 (UACC-257): 79.8 µM (inactive) | GI50 (UACC-62): 50.4 µM (inactive) | GI50 (UO-31): > 100 µM (inactive)
